These results are taken from the OligoGym collection.

HELM strings list units from the 5' end as sugar, base in round brackets, then linkage (d deoxyribose, r ribose, m 2'-O-methyl, p phosphodiester). Strings are as the collection lists them, not checked against the first reports. ss, as = sense and antisense strand; [lna] = locked nucleic acid (LNA); [una] = unlocked nucleic acid; [s4r] = 4'-thioribose; [fl2r] = 2'-fluoro
Further: test system not given here.

For the data set the following is noted: siRNA.
With “RNA1{[fl2r](C)p.r(U)p.[fl2r](G)p.r(A)p.[fl2r](C)p.r(C)p.[fl2r](G)p.r(G)p.[fl2r](A)p.r(A)p.[fl2r](G)p.r(C)p.[fl2r](G)p.r(C)p.[fl2r](U)p.r(U)p.[fl2r](A)p.r(A)p.[fl2r](A)p.r(T)p.r(T)}|RNA2{r(U)p.r(U)p.r(U)p.[fl2r](A)p.[fl2r](A)p.r(G)p.r(C)p.r(G)p.r(C)p.r(U)p.r(U)p.r(C)p.r(C)p.r(G)p.r(G)p.r(U)p.r(C)p.[fl2r](A)p.r(G)p.r(T)p.r(T)}$$$RNA1{StrandType:ss}|RNA2{StrandType:as}$”, the target mRNA knockdown worked out at 59%.

“RNA1{r(G)p.r(U)p.r(C)p.m(U)p.r(A)p.m(U)p.r(G)p.r(C)p.m(C)p.r(A)p.r(A)p.r(G)p.r(A)p.r(A)p.r(G)p.r(G)p.r(G)p.r(A)p.r(G)p.r(T)p.r(T)}|RNA2{r(C)p.r(U)p.r(C)p.r(C)p.r(C)p.r(U)p.r(U)p.r(C)p.r(U)p.m(U)p.r(G)p.r(G)p.m(C)p.r(A)p.m(U)p.r(A)p.r(G)p.r(A)p.r(C)p.r(T)p.r(T)}$$$RNA1{StrandType:ss}|RNA2{StrandType:as}$” displayed a target mRNA knockdown of 72%.

Substance “RNA1{r(C)p.r(U)p.r(U)p.r(A)p.r(C)p.r(G)p.r(C)p.r(U)p.r(G)p.r(A)p.r(G)p.r(U)p.r(A)p.r(C)p.r(U)p.r(U)p.r(C)p.r(G)p.r(A)p.r(T)p.r(T)}|RNA2{r(U)p.r(C)p.r(G)p.[lna](A)p.r(A)p.r(G)p.r(U)p.r(A)p.r(C)p.r(U)p.r(C)p.r(A)p.r(G)p.r(C)p.r(G)p.r(U)p.r(A)p.r(A)p.r(G)p.r(T)p.r(T)}$$$RNA1{StrandType:ss}|RNA2{StrandType:as}$” showed a target mRNA knockdown of 85%. For “RNA1{r(C)p.r(U)p.r(U)p.r(A)p.r(C)p.r(G)p.r(C)p.r(U)p.r(G)p.r(A)p.r(G)p.r(U)p.r(A)p.r(C)p.r(U)p.r(U)p.r(C)p.r(G)p.r(A)p.r(T)p.r(T)}|RNA2{[lna](T)p.r(C)p.r(G)p.r(A)p.r(A)p.r(G)p.r(U)p.r(A)p.r(C)p.r(U)p.r(C)p.r(A)p.r(G)p.r(C)p.r(G)p.r(U)p.r(A)p.r(A)p.r(G)p.[lna](T)p.[lna](T)}$$$RNA1{StrandType:ss}|RNA2{StrandType:as}$”, the target mRNA knockdown came out at 57%. As for “RNA1{[fl2r](G)p.r(C)p.[fl2r](U)p.r(G)p.[fl2r](A)p.r(A)p.[fl2r](C)p.r(U)p.[fl2r](A)p.r(G)p.[fl2r](U)p.r(C)p.[fl2r](G)p.r(A)p.[fl2r](A)p.r(A)p.[fl2r](G)p.r(A)p.[fl2r](A)p.r(T)p.r(T)}|RNA2{r(U)p.r(U)p.r(C)p.r(U)p.r(U)p.r(U)p.r(C)p.r(G)p.[fl2r](A)p.r(C)p.r(U)p.[fl2r](A)p.r(G)p.r(U)p.r(U)p.r(C)p.[fl2r](A)p.r(G)p.r(C)p.r(T)p.r(T)}$$$RNA1{StrandType:ss}|RNA2{StrandType:as}$”, the figure is 49%. Then “RNA1{m(G)p.m(A)p.m(G)p.m(G)p.m(A)p.m(A)p.m(G)p.m(A)p.r(U)p.m(G)p.m(A)p.m(G)p.r(U)p.r(U)p.m(G)p.r(U)p.m(A)p.r(C)p.r(C)p.r(T)p.r(T)}|RNA2{r(G)p.r(G)p.r(U)p.r(A)p.r(C)p.r(A)p.r(A)p.r(C)p.r(U)p.r(C)p.r(A)p.r(U)p.r(C)p.r(U)p.r(U)p.r(C)p.r(C)p.r(U)p.r(C)p.r(T)p.r(T)}$$$RNA1{StrandType:ss}|RNA2{StrandType:as}$”, with 70%. Substance “RNA1{m(A)p.m(A)p.r(U)p.m(A)p.m(A)p.m(G)p.r(C)p.m(A)p.m(G)p.r(C)p.r(U)p.r(C)p.m(G)p.r(C)p.m(G)p.r(C)p.r(U)p.r(C)p.r(C)p.r(T)p.r(T)}|RNA2{r(G)p.r(G)p.r(A)p.r(G)p.r(C)p.r(G)p.r(C)p.r(G)p.r(A)p.r(G)p.r(C)p.r(U)p.r(G)p.r(C)p.r(U)p.r(U)p.r(A)p.r(U)p.r(U)p.r(T)p.r(T)}$$$RNA1{StrandType:ss}|RNA2{StrandType:as}$” gave a target mRNA knockdown of 64%. “RNA1{r(A)p.r(A)p.r(C)p.r(C)p.r(C)p.r(A)p.r(C)p.r(C)p.r(A)p.r(C)p.r(A)p.r(G)p.r(C)p.[fl2r](U)p.[fl2r](A)p.r(G)p.r(A)p.r(A)p.r(C)p.r(U)p.r(U)}|RNA2{r(A)p.r(A)p.r(G)p.r(U)p.r(U)p.r(C)p.[fl2r](U)p.[fl2r](A)p.r(G)p.r(C)p.r(U)p.r(G)p.r(U)p.r(G)p.r(G)p.r(U)p.r(G)p.r(G)p.r(G)p.r(U)p.r(U)}$$$RNA1{StrandType:ss}|RNA2{StrandType:as}$”: the target mRNA knockdown is 57%. “RNA1{r(G)p.r(U)p.r(A)p.r(U)p.r(G)p.r(A)p.r(C)p.r(C)p.r(G)p.r(A)p.r(C)p.r(U)p.r(A)p.r(C)p.r(G)p.r(C)p.r(G)p.r(U)p.r(A)p.r(T)p.r(T)}|RNA2{r(U)p.r(U)p.r(C)p.r(A)p.r(G)p.r(U)p.r(G)p.r(U)p.r(G)p.r(A)p.r(U)p.r(G)p.r(A)p.r(C)p.r(A)p.r(C)p.r(U)p.r(U)p.r(G)p.[una](T)p.[una](T)}$$$RNA1{StrandType:ss}|RNA2{StrandType:as}$” had a target mRNA knockdown of 81%. Take “RNA1{m(C)p.r(U)p.m(G)p.r(A)p.m(C)p.r(C)p.m(G)p.r(G)p.m(A)p.r(A)p.m(G)p.r(C)p.m(G)p.r(C)p.m(U)p.r(U)p.m(A)p.r(A)p.r(A)p.r(T)p.r(T)}|RNA2{r(U)p.r(U)p.r(U)p.r(A)p.r(A)p.r(G)p.r(C)p.r(G)p.m(C)p.r(U)p.r(U)p.r(C)p.m(C)p.r(G)p.r(G)p.r(U)p.m(C)p.r(A)p.r(G)p.r(T)p.r(T)}$$$RNA1{StrandType:ss}|RNA2{StrandType:as}$”: the target mRNA knockdown was found to be 27%. For “RNA1{r(A)p.r(G)p.r(A)p.r(G)p.r(U)p.r(U)p.r(G)p.r(G)p.r(G)p.r(A)p.r(U)p.r(U)p.r(A)p.r(G)p.r(G)p.r(G)p.r(C)p.r(U)p.r(U)p.r(T)p.r(T)}|RNA2{r(A)p.r(A)p.r(G)p.r(C)p.r(C)p.r(C)p.m(U)p.r(A)p.r(A)p.r(U)p.r(C)p.r(C)p.r(C)p.r(A)p.r(A)p.r(C)p.r(U)p.r(C)p.r(U)p.r(T)p.r(T)}$$$RNA1{StrandType:ss}|RNA2{StrandType:as}$”, the target mRNA knockdown was 69%. “RNA1{m(G)p.r(G)p.m(G)p.r(A)p.m(G)p.r(G)p.m(U)p.r(C)p.m(U)p.r(U)p.m(A)p.r(G)p.m(A)p.r(A)p.m(A)p.r(A)p.m(C)p.r(A)p.m(C)p.r(T)p.r(T)}|RNA2{r(G)p.r(U)p.r(G)p.r(U)p.r(U)p.r(U)p.r(U)p.r(C)p.r(U)p.r(A)p.r(A)p.r(G)p.r(A)p.r(C)p.r(C)p.r(U)p.r(C)p.r(C)p.r(C)p.r(T)p.r(T)}$$$RNA1{StrandType:ss}|RNA2{StrandType:as}$” gave a target mRNA knockdown of 17%. Substance “RNA1{r(G)p.r(A)p.r(C)p.r(G)p.r(U)p.r(A)p.r(A)p.r(A)p.r(C)p.r(G)p.r(G)p.r(C)p.r(C)p.r(A)p.r(C)p.r(A)p.r(A)p.r(G)p.r(U)p.[lna](T)p.[lna](C)}|RNA2{r(A)p.r(C)p.r(U)p.r(U)p.r(G)p.r(U)p.r(G)p.r(G)p.r(C)p.r(C)p.r(G)p.r(U)p.r(U)p.r(U)p.r(A)p.r(C)p.r(G)p.r(U)p.[lna](C)p.[lna](G)p.r(C)}$$$RNA1{StrandType:ss}|RNA2{StrandType:as}$” registered a target mRNA knockdown of 86.7%. Then “RNA1{r(A)p.r(A)p.m(C)p.r(A)p.r(G)p.r(C)p.r(C)p.r(U)p.m(U)p.r(A)p.r(C)p.r(C)p.r(C)p.r(C)p.r(G)p.r(A)p.r(U)p.r(U)p.r(C)p.r(T)p.r(T)}|RNA2{r(G)p.r(A)p.r(A)p.r(U)p.r(C)p.r(G)p.r(G)p.r(G)p.r(G)p.m(U)p.r(A)p.r(A)p.r(G)p.r(G)p.r(C)p.m(U)p.r(G)p.r(U)p.r(U)p.r(T)p.r(T)}$$$RNA1{StrandType:ss}|RNA2{StrandType:as}$”, with 68%. Then “RNA1{r(A)p.r(A)p.r(G)p.r(G)p.r(A)p.r(C)p.r(C)p.[fl2r](U)p.r(A)p.r(G)p.r(A)p.r(G)p.r(G)p.r(A)p.r(G)p.r(U)p.r(C)p.r(A)p.r(C)p.r(T)p.r(T)}|RNA2{r(G)p.r(U)p.r(G)p.r(A)p.r(C)p.r(U)p.r(C)p.r(C)p.r(U)p.r(C)p.[fl2r](U)p.r(A)p.r(G)p.r(G)p.r(U)p.r(C)p.r(C)p.r(U)p.r(U)p.r(T)p.r(T)}$$$RNA1{StrandType:ss}|RNA2{StrandType:as}$”, with 88%; and “RNA1{[s4r](A)p.[s4r](A)p.[s4r](A)p.[s4r](C)p.r(A)p.r(U)p.r(G)p.r(C)p.r(A)p.r(G)p.r(A)p.r(A)p.r(A)p.r(A)p.r(U)p.r(G)p.r(C)p.r(U)p.r(G)p.r(T)p.r(T)}|RNA2{r(C)p.r(A)p.r(G)p.r(C)p.r(A)p.r(U)p.r(U)p.r(U)p.r(U)p.r(C)p.r(U)p.r(G)p.r(C)p.r(A)p.r(U)p.r(G)p.r(U)p.r(U)p.r(U)p.r(T)p.r(T)}$$$RNA1{StrandType:ss}|RNA2{StrandType:as}$”, with 70.4%; and “RNA1{[fl2r](A)p.r(G)p.[fl2r](A)p.r(C)p.[fl2r](U)p.r(A)p.[fl2r](A)p.r(G)p.[fl2r](C)p.r(C)p.[fl2r](C)p.r(A)p.[fl2r](A)p.r(A)p.[fl2r](A)p.r(G)p.[fl2r](G)p.r(G)p.[fl2r](C)p.r(T)p.r(T)}|RNA2{r(G)p.r(C)p.r(C)p.r(C)p.r(U)p.r(U)p.r(U)p.r(U)p.r(G)p.r(G)p.r(G)p.r(C)p.r(U)p.r(U)p.r(A)p.r(G)p.r(U)p.r(C)p.r(U)p.r(T)p.r(T)}$$$RNA1{StrandType:ss}|RNA2{StrandType:as}$”, with 26%. As for “RNA1{r(C)p.r(C)p.r(U)p.r(C)p.r(C)p.r(C)p.m(C)p.r(A)p.r(U)p.r(C)p.r(C)p.r(C)p.r(C)p.r(U)p.r(U)p.r(U)p.m(U)p.r(A)p.r(A)p.r(T)p.r(T)}|RNA2{r(U)p.r(U)p.m(A)p.r(A)p.r(A)p.r(A)p.r(G)p.r(G)p.r(G)p.r(G)p.r(A)p.m(U)p.r(G)p.r(G)p.r(G)p.r(G)p.r(A)p.r(G)p.r(G)p.r(T)p.r(T)}$$$RNA1{StrandType:ss}|RNA2{StrandType:as}$”, the figure is 80%; as for “RNA1{[fl2r](A)p.r(U)p.[fl2r](C)p.r(G)p.[fl2r](C)p.r(U)p.[fl2r](G)p.r(C)p.[fl2r](U)p.r(C)p.[fl2r](C)p.r(U)p.[fl2r](C)p.r(C)p.[fl2r](U)p.r(C)p.[fl2r](C)p.r(U)p.[fl2r](C)p.r(T)p.r(T)}|RNA2{r(G)p.r(A)p.r(G)p.r(G)p.r(A)p.r(G)p.r(G)p.r(A)p.r(G)p.r(G)p.r(A)p.r(G)p.r(C)p.r(A)p.r(G)p.r(C)p.r(G)p.r(A)p.[fl2r](U)p.r(T)p.r(T)}$$$RNA1{StrandType:ss}|RNA2{StrandType:as}$”, 39%.
